Laboratory results from patent US20210113563A1, “4-(4-CYANO-2-THIOARYL)DIHYDROPYRIMIDINONES FOR TREATING CHRONIC WOUNDS” (pH Pharma Co., Ltd., priority 2015, published 2021).

Test system: myeloperoxidase (MPO)
Experiment: Myeloperoxidase (MPO) activity in wound tissue of diabetic mice (db/db)
Assay type: in vivo
Details: db/db mouse
Description: MPO determination is based on the oxidation of H2O2 by a peroxidase in the presence of TMB (3,3′5,5′-Tetramethylbenzidin). The results were quantified with a human MPO standard curve prepared in homogenate buffer, which also serves as a blank. Samples were diluted fifteen fold in homogenate buffer. Of each sample, standard and blank 20 μL were dispensed in a clear flat bottom MWP at RT. Following that 100 μL of fresh 0.2 mM TMB in AC-POX buffer are added and the reaction was started by adding 12.5 μL of 1 mM H2O2 in AC-POX buffer. After 5-10 min 22.5 μL of 1 N H2SO4 was added to stop the reaction and plates were vortexed briefly to evenly distribute the newly developed yellow color. […] Absorption was measured at k=450 nm and the amount of MPO in samples was calculated from standard curve in SoftmaxPro 6.4 after subtracting the blank.
To assess neutrophil activity in wound tissue samples, myeloperoxidase activity was measured.

CC1=C(C#N)[C@@H](c2ccc(C#N)cc2S(C)(=O)=O)N(C)C(=O)N1c1cccc(C(F)(F)F)c1 [Example 5, (4 S)-4-[4-Cyano-2-(methylsulfonyl)phenyl]-3,6-dimethyl-2-oxo-1-[3-(trifluoromethyl)phenyl]-1,2,3,4-tetrahydropyrimidine-5-carbonitrile]
Neutrophil dependent inflammatory activity in wound tissue (MPO activity) (0.03 mg/kg BW o.d.): 0.00361 Peroxidase Activity/μg Protein
Neutrophil dependent inflammatory activity in wound tissue (MPO activity) (0.1 mg/kg BW o.d.): 0.00029 Peroxidase Activity/μg Protein
Neutrophil dependent inflammatory activity in wound tissue (MPO activity) (0.3 mg/kg BW o.d.): 0.00043 Peroxidase Activity/μg Protein
Neutrophil dependent inflammatory activity in wound tissue (MPO activity) (1.0 mg/kg BW o.d.): 0.00043 Peroxidase Activity/μg Protein
Neutrophil dependent inflammatory activity in wound tissue (MPO activity) (3.0 mg/kg BW o.d.): 0.00027 Peroxidase Activity/μg Protein
Neutrophil dependent inflammatory activity in wound tissue (MPO activity) (10.0 mg/kg BW o.d.): 0.00016 Peroxidase Activity/μg Protein
Inhibition of MPO activity in wound tissue (in words) (from 0.1 mg/kg): potently and effectively inhibited MPO activity in wound tissue
